According to patent US20030207854A1, “Antiprogestins with partial agonist activity” (priority 2002, published 2003):
Read-outs that look alike come from different tables or passages of the source.

Experiments:
[1] = biological target: T1, human PR-B (Homo sapiens, UniProt P06401); assay: PR-B transactivation of MMTVLuc reporter in transiently transfected 1470.2 cells; assay type: cell-based; settings: for EC50: read-out: EC50 from dose-response curves
T1 construct: expressed in transfected cells; host or cells: 1470.2 mouse mammary adenocarcinoma cells
T1 sequence (P06401 1-933): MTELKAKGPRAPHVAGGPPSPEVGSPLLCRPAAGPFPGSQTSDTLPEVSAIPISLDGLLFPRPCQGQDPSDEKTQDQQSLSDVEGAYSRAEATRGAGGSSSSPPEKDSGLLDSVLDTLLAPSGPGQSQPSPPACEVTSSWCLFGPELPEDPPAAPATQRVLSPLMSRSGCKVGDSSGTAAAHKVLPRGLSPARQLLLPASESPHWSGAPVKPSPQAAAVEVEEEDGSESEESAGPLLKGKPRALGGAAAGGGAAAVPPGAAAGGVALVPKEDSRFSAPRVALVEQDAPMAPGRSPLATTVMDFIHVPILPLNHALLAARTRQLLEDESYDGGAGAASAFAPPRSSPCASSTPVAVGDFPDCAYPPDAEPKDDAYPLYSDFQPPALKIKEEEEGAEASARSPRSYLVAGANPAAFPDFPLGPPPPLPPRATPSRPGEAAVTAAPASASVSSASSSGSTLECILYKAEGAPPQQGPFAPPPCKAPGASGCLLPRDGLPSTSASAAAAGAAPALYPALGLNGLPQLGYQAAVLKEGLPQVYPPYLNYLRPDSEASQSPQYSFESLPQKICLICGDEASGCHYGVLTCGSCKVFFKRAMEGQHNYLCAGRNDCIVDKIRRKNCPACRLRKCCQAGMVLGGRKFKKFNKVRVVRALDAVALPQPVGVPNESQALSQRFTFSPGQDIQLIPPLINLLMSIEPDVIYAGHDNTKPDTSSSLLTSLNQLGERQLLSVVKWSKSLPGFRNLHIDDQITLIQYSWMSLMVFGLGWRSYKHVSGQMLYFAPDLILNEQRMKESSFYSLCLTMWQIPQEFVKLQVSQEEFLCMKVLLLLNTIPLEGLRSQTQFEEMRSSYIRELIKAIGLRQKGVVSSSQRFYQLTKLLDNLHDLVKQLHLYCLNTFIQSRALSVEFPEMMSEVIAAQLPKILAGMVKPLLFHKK
Text: All data were normalized for Renilla expression. […] The error bars represent the SD of triplicate plates.
All data were normalized for protein levels in the cell lysates. […] The error bars represent the SD of triplicate plates.
All data were normalized for Renilla expression.

[2] = biological target: T2, PR (Homo sapiens, UniProt P06401)
T2 sequence (P06401 1-933): T1 sequence (P06401 1-933)
Text: The absolute levels of luciferase activity (±S.D. of triplicate values) were plotted.

[3] = biological target: T2, PR; assay type: cell-based; set-up: expressed in transfected cells; host or cells: CV-1 cells
Protocol: Cell culture and transfection: Monolayer cultures of COS-7 cells were grown at 37° C. with 5% CO2 in Dulbecco's modified Eagle's medium (DMEM; GIBCO/BRL Life Technologies, Inc.) supplemented with 5% of fetal bovine serum, respectively. The 1470.2 mouse mammary adenocarcinoma cells (Pennie et al., Mol Cell Biol 15:2125-2134, 1995) were grown in DMEM with 4.5 g glucose/L (Quality Biologicals, Inc.) whereas T47D cells were grown in Dulbecco's modified Eagle's medium with high glucose (4.5 g/L, 2 mM glutamine, and 60 ng/ml insulin), both with 10% of fetal bovine serum. The 1470.2 cells were transiently transfected with the human PR-B construct, 1 μg of MMTVLuc, and 50 ng Renilla null luciferase, with the total transfected DNA brought up to 3 μg/60 mm dish with pBSK^+DNA, using the calcium phosphate method as previously described (Szapary et al., J Biol Chem 271:30576-30582, 1996). Following 24 h of steroid treatment, the cells were harvested in 1× Passive Lysis Buffer (0.5 ml/dish; Promega, Madison, Wis.). Twenty μl of the cell lysates were used to assay for luciferase activity using the Dual-Luciferase Assay System from Promega (Madison, Wis.) and the methods recommended by the supplier. […]

[4] = 1470.2 cells, transfected human PR-B, MMTVLuc reporter

With `C[C@@H]1C[C@H]2[C@@H]3CCC4=CC(=O)C=C[C@]4(C)[C@@]3(F)[C@@H](O)C[C@]2(C)[C@@]1(O)C(=O)COS(C)(=O)=O` [Dex-Mes, dexamethasone 21-mesylate] the “partial progestin activity with added PR” value ([1]; 1470.2 cells, 3 or 30 ng PR-B plasmid, 1 μM steroid, FIG. 5B) was “significant amounts of partial progestin activity”, the EC50 [1, 4] was ~350 nM and the “antiprogestin activity: inhibition of the action of 300 pM R5020” value ([2]; 1 μM and 10 μM Dex-Mes, 1 μM Dex-Ox, FIG. 7) was “reduced the activity of 300 pM R5020 to that of the competing steroid alone”. The “agonist activity in CV-1 cells” value ([3]; CV-1 cells) was “much more agonist activity than either RIT 3021-020 or RU 486”.

`C[C@@H]1C[C@H]2[C@@H]3CCC4=CC(=O)C=C[C@]4(C)[C@@]3(F)[C@@H](O)C[C@]2(C)[C@]12OCC2=O` [Dex-Ox, dexamethasone oxetanone] was tested, and the “partial progestin activity with added PR” value [1] was “significant amounts of partial progestin activity”, the EC50 [1] was ~30 nM and the “antiprogestin activity: inhibition of the action of 300 pM R5020” value [2] was “reduced the activity of 300 pM R5020 to that of the competing steroid alone”. For the same compound, the “agonist activity in CV-1 cells” value [3] was “much more agonist activity than either RIT 3021-020 or RU 486”.

Compound `CCC(=O)[C@@]1(C)CC[C@H]2[C@@H]3CCC4=CC(=O)CCC4=C3CC[C@@]21C` [R5020, promegestone, reference compound] has an EC50 [1, 4] of 0.4 nM.
